# According to patent US9296704B2, “Substituted pyrimidines as protein kinase inhibitors” (CELGENE AVILOMICS RESEARCH, INC., priority 2007, dated 2016):
# Legend:
# EGFR (WT) = molecular target: T1, EGFR (WT) (Homo sapiens, UniProt P00533); assay: Omnia continuous-read kinase assay, EGFR (WT); assay type: biochemical; conditions: read-out: EGFR inhibtion
# T1 construct: purchased Invitrogen PV3872
# Excerpt: (§1) The protocol below describes continuous-read kinase assays to measure inherent potency of compounds against active forms of EGFR (WT) and EGFR (T790M/L858R) enzymes. The mechanics of the assay platform are best described by the vendor (Invitrogen, Carlsbad, Calif.) on their website at the following URL: http://www.invitrogen.com/content.cfm?pageid=11338 or http://www.invitrogen.com/site/us/en/home/Products-and-Services/Applications/Drug-Discovery/Target-and-Lead-Identification-and-Validation/KinaseBiology/KB-Misc/Biochemical-Assays/Omnia-Kinase-Assays.html.
# (§2) Briefly, 10× stocks of EGFR-WT (PV3872) from Invitrogen and EGFR-T790M/L858R (40350) from BPS Bioscience, San Diego, Calif., 1.13×ATP (AS001A) and appropriate Tyr-Sox conjugated peptide substrates (KCZI001) were prepared in 1× kinase reaction buffer consisting of 20 mM Tris, pH 7.5, 5 mM MgCl2, 1 mM EGTA, 5 mM β-glycerophosphate, 5% glycerol (10× stock, KB002A) and 0.2 mM DTT (DS001A). 5 μL of each enzyme were pre-incubated in a Corning (#3574) 384-well, white, non-binding surface microtiter plate (Corning, NY) for 30 min. at 27° C. with a 0.5 μL volume of 50% DMSO and serially diluted compounds prepared in 50% DMSO. Kinase reactions were started with the addition of 45 μL of the ATP/Tyr-Sox peptide substrate mix and monitored every 30-90 seconds for 60 minutes at λex360/λem485 in a Synergy^4 plate reader from BioTek (Winooski, Vt.). At the conclusion of each assay, progress curves from each well were examined for linear reaction kinetics and fit statistics (R^2, 95% confidence interval, absolute sum of squares). Initial velocity (0 minutes to ˜30 minutes) from each reaction was determined from the slope of a plot of relative fluorescence units vs time (minutes) and then plotted against inhibitor concentration to estimate IC50 from log [Inhibitor] vs Response, Variable Slope model in GraphPad Prism from GraphPad Software (San Diego, Calif.).
# (§3) The EGFR-WT- and EGFR T790M/L858R-modified optimized reagent conditions are: • [EGFR-WT]=5 nM, [ATP]=[…], [Y12-Sox]=[…]; and [EGFR-T790M/L858R]=3 nM, [ATP]=[…], [Y12-Sox]=[…].
# BTK = BTK (Homo sapiens, UniProt Q06187); assay: Omnia assay for potency against BTK; assay type: biochemical; conditions: read-out: BTK Inhibition
# Chain of BTK (Q06187 whole entry): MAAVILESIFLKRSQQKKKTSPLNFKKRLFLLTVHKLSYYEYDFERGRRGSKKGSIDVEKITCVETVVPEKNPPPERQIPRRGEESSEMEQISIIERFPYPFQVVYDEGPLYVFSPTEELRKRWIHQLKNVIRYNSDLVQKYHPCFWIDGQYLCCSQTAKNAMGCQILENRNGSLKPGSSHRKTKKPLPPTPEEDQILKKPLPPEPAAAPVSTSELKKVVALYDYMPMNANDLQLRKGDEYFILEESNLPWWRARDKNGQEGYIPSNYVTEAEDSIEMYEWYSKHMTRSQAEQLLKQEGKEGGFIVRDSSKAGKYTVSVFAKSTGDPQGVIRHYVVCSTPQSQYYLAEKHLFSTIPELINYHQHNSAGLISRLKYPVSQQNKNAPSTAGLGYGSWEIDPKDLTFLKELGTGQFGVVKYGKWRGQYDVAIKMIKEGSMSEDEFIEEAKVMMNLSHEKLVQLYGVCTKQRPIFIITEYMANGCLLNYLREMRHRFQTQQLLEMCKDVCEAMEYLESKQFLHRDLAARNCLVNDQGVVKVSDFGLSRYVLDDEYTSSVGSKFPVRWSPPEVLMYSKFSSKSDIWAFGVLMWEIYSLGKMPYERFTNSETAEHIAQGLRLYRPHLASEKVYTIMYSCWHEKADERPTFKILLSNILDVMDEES
# Excerpt: as §1, §2
# The Omnia Assay Protocol for potency assessment against BTK is performed in a substantially similar manner as that described in Example 25 above except that the modified BTK-optimized reagent conditions are: • [BTK]=5 nM, [ATP]=[…], [Y5-Sox]=[…] (ATP KMapp ˜[…]).
# ITK = molecular target: T2, ITK (Homo sapiens, UniProt Q08881); assay: Omnia assay for potency against ITK; assay type: biochemical; conditions: read-out: ITK inhibition
# T2 sequence (Q08881 1-620): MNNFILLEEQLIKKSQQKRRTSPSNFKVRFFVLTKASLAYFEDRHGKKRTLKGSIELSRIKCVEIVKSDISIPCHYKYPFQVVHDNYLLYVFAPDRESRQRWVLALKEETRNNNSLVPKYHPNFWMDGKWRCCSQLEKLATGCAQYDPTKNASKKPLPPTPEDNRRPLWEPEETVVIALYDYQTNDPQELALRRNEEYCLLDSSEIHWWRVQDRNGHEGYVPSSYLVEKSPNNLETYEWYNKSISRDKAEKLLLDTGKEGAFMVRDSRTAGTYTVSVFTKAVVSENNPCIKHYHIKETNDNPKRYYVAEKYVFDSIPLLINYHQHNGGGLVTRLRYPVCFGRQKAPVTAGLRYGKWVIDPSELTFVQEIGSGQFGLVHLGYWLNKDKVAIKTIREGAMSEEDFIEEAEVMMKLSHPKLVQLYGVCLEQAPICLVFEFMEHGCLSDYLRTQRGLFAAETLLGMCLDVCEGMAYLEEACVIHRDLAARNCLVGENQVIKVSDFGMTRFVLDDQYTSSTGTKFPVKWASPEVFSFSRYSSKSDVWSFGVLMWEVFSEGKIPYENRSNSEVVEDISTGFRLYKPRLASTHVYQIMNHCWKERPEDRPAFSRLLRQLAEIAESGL
# Excerpt: as §1, §2
# This example describes continuous-read kinase assays to measure inherent potency of compound against active forms of ITK enzymes as described in Example 10 above except that the modified ITK-optimized reagent conditions are: • [ITK]=10 nM, [ATP]=25 μM, [Y6-Sox]=10 μM (ATP KMapp=33 μM).
# EGFR (T790M/L858R) = molecular target: T3, EGFR (T790M/L858R) (Homo sapiens, UniProt P00533, L858R/T790M); assay: Omnia continuous-read kinase assay, EGFR (T790M/L858R); assay type: biochemical; conditions: read-out: EGFR (T790M/L858R) inhibiton
# T3 construct: purchased BPS Bioscience 40350
# T3 sequence (P00533 25-1210 T790M/L858R): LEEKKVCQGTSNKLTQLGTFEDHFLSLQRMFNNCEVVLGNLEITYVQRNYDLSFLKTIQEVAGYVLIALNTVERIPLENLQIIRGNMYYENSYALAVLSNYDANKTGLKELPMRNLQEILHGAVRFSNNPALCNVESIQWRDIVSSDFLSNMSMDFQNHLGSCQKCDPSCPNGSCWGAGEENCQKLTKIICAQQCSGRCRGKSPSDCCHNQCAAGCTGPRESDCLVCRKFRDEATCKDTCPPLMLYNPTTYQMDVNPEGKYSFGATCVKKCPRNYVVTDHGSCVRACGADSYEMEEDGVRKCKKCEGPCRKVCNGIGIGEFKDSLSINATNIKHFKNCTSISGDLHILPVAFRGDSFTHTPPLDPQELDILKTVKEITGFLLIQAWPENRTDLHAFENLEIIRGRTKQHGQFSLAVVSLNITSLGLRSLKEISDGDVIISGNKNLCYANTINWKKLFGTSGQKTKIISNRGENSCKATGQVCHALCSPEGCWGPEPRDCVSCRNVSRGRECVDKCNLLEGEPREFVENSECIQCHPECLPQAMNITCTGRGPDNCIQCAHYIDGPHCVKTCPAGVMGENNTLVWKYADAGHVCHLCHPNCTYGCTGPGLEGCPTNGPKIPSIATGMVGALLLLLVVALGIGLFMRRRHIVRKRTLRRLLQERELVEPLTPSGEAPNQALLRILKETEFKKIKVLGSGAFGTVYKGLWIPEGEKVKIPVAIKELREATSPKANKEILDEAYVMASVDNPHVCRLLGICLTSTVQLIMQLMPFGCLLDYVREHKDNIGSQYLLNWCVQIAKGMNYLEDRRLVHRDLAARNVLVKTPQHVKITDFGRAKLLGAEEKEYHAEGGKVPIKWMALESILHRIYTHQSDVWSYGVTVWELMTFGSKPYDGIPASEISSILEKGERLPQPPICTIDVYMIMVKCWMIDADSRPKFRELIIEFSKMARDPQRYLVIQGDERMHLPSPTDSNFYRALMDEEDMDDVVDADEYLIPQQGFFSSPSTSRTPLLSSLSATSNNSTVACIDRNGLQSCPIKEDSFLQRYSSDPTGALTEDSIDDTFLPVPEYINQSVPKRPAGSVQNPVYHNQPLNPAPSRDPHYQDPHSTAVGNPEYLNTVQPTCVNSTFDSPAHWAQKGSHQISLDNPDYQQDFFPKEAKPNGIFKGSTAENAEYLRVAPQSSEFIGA
# Excerpt: as §1, §2, §3
# ErbB1 = ErbB1 (Homo sapiens, UniProt P00533); assay: Z'-LYTE biochemical assay, ErbB1 kinase inhibition; conditions: @ 1 μM
# Chain of ErbB1 (P00533 25-1210): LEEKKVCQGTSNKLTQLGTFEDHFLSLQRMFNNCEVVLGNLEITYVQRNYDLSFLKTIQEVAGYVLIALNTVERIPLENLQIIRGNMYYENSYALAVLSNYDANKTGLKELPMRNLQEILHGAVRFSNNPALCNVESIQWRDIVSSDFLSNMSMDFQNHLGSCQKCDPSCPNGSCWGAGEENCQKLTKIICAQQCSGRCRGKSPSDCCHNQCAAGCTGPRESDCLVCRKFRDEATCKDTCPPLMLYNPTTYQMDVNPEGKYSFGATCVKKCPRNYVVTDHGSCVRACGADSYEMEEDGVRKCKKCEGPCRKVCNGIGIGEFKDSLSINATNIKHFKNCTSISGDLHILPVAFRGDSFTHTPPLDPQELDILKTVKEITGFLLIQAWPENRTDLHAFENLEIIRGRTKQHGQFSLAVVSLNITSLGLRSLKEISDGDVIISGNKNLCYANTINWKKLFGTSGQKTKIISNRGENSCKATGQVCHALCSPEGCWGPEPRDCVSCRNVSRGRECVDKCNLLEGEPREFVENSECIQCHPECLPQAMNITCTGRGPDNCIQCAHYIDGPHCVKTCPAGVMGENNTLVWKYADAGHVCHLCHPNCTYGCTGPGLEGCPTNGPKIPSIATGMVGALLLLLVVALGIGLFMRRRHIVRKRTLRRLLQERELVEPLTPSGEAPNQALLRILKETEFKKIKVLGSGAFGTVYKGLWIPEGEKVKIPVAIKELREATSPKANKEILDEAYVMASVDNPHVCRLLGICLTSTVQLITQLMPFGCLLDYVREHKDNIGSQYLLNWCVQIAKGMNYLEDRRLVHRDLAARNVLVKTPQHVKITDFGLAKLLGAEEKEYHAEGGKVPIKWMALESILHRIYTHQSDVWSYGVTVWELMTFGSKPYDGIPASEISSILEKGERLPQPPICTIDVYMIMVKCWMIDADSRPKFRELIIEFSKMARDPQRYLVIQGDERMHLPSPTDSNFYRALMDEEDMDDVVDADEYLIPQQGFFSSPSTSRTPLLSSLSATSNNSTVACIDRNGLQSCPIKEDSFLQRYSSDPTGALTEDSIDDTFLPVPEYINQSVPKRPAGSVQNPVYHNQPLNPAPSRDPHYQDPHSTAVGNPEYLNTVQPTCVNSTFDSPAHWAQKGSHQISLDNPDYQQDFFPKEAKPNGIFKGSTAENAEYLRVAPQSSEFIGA
# Experimental: Compounds of the present invention were assayed as inhibitors of one or more of ErbB1, ErbB2, and/or ErbB4 in a manner substantially similar to the method described by Invitrogen Corp (Invitrogen Corporation, 1600 Faraday Avenue, Carlsbad, Calif., CA; http://www.invitrogen.com/downloads/Z-LYTE_Brochure—1205.pdf) using the Z′-LYTE™ biochemical assay procedure or similar biochemical assay. The Z′-LYTE™ biochemical assay employs a fluorescence-based, coupled-enzyme format and is based on the differential sensitivity of phosphorylated and non-phosphorylated peptides to proteolytic cleavage.
# JAK3 = molecular target: T4, JAK3 (Homo sapiens, UniProt P52333); assay: Omnia assay for potency against JAK3; assay type: biochemical; conditions: read-out: JAK3 Inhibition
# T4 sequence (P52333 1-1124): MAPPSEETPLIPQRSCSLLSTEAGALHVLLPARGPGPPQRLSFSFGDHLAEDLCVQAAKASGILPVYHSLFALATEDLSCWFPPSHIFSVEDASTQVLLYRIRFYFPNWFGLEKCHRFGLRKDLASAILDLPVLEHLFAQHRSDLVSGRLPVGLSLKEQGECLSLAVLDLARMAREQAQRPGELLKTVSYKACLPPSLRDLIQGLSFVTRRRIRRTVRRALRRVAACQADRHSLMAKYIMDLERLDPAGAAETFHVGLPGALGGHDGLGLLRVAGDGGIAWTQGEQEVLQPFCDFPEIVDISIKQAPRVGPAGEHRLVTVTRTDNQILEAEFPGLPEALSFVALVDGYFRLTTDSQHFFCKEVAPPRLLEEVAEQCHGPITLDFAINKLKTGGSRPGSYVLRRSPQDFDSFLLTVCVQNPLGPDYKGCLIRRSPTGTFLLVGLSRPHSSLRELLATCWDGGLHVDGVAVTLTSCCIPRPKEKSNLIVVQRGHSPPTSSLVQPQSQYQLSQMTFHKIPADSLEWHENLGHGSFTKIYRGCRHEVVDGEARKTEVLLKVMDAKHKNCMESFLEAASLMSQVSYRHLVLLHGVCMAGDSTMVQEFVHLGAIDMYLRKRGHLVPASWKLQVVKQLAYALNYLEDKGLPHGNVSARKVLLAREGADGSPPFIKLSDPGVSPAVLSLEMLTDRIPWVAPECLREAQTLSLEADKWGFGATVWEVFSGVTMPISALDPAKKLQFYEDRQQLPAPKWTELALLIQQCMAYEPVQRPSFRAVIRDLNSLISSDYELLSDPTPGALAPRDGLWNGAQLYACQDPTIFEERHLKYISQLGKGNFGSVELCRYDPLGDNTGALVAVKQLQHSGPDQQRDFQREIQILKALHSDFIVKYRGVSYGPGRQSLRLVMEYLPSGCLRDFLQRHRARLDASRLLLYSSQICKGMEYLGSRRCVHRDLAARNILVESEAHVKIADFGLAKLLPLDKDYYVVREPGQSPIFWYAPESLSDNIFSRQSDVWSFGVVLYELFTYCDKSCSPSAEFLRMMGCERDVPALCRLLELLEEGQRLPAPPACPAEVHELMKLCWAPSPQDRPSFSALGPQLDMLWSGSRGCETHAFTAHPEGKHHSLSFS
# Excerpt: as §1, §2
# The Omnia Assay Protocol for potency assessment against JAK3 is performed in a substantially similar manner as that described in Example 25 above except that the modified JAK3-optimized reagent conditions are: • [JAK3]=5 nM, [ATP]=5 μM, [Y12-Sox]=5 μM (ATP KMapp ˜[…]).
# [1] = system: BTK signaling in Ramos cells; assay: BTK Ramos cellular assay (PLCγ2 phosphorylation); assay type: cell-based; conditions: Homo sapiens; for IC50: Ramos cells, PLCγ2 phosphorylation, read-out: BTK Inhibition
# Experimental: Compounds 1-13 and (I-52) were assayed in Ramos human Burkitt lymphoma cells. Ramos cells were grown in suspension in T225 flasks, spun down, resuspended in 50 mls serum-free media and incubated for 1 hour. Compound was added to Ramos cells in serum free media to a final concentration of 1, 0.1, 0.01, or 0.001 μM. Ramos cells were incubated with compound for 1 hour, washed again and resuspended in 100 ul serum-free media. Cells were then stimulated with 1 μg of goat F(ab′)2 Anti-Human IgM and incubated on ice for 10 minutes to activate B cell receptor signaling pathways. After 10 minutes, the cells were washed once with PBS and then lysed on ice with Invitrogen Cell Extraction buffer. 16 μg total protein from lysates was loaded on gels and blots were probed for phosphorylation of the BTK substrate PLCγ2. […] Additional dose response inhibition of BTK signaling with I-13 is depicted in FIG. 9.
# T1 sequence (P00533 25-1210): as the sequence (P00533 25-1210) above
SMILES,IC50 (EGFR (WT)),IC50 (BTK),IC50 (ITK),IC50 (EGFR (T790M/L858R)),inhibition at 1 µM (ErbB1),IC50 (JAK3),"inhibition at 1 µM ([1]; Ramos, at 1 μM, 1 hour)",IC50 [1]
"CC=CC(=O)c1cccc(Nc2cc(Nc3ccc(Oc4ccccc4)cc3)ncn2)c1 (mixture of isomers) [I-89, (E,Z)-1-(3-(6-(4-phenoxyphenylamino)pyrimidin-4-ylamino)phenyl)but-2-en-1-one]",≤ 10 nM,≤ 10 nM,100 to 1000 nM,,,,,
C=CS(=O)(=O)Nc1cccc(Nc2cc(Oc3cccc(C(F)(F)F)c3)ncn2)c1 [I-10],≤ 10 nM,100 to 1000 nM,≥ 10000 nM,100 to 1000 nM,96%,100 to 1000 nM,,
C=CC(=O)Nc1cccc(Nc2cc(N3CCc4ccccc43)ncn2)c1 [I-14],≤ 10 nM,100 to 1000 nM,1000 to 10000 nM,10 to 100 nM,96%,≤ 10 nM,,
"C=CC(=O)Nc1cccc(Nc2cc(N(C)c3ccccc3)ncn2)c1 [I-15, N-{3-[6-(N-methyl-N-phenylamino)-pyrimidin-4-ylamino]phenyl}-2 propenamide]",≤ 10 nM,10 to 100 nM,1000 to 10000 nM,10 to 100 nM,98%,10 to 100 nM,,
CN(C)C/C=C/C(=O)Nc1cccc(Nc2cc(Nc3ccc(F)c(Cl)c3)ncn2)n1 [I-52],≤ 10 nM,≤ 10 nM,,,,≤ 10 nM,50%,
C=CC(=O)Nc1cccc(Nc2cc(Oc3cccc(C)c3)ncn2)n1 [I-65)],,,,,,,,≤ 10 nM
C=CC(=O)Nc1cccc(Nc2cc(Oc3ccc(Oc4ccccc4)cc3)ncn2)n1 [I-66)],,,,,,,,≤ 10 nM
"CC#CC(=O)c1cccc(Nc2cc(Nc3ccc(Oc4ccccc4)cc3)ncn2)c1 [I-88, 1-(3-(6-(4-phenoxyphenylamino)pyrimidin-4-ylamino)phenyl)but-2-yn-1-one]",≤ 10 nM,≤ 10 nM,10 to 100 nM,,,,,
"C=CC(=O)Nc1cccc(Nc2cc(Oc3cccc(OC)c3)ncn2)n1 [I-90, N-(6-(6-(3-methoxyphenoxy)pyrimidin-4-ylamino)pyridine-2-yl)acrylamide]",≤ 10 nM,≤ 10 nM,100 to 1000 nM,,,,,
"C=CC(=O)Nc1cccc(Nc2cc(Oc3ccc4c(c3)OCCO4)ncn2)n1 [I-95, N-(6-(6-(2,3-dihydrobenzo[b][1,4]dioxin-6-yloxy)pyrimidin-4-ylamino)pyridin-2-yl)acrylamide]",≤ 10 nM,≤ 10 nM,≥ 10000 nM,,,,,≤ 10 nM
COc1ccc(NC(=O)/C=C/CN(C)CCCCNC(=O)OC(C)(C)C)cc1Nc1cc(Nc2ccc(F)c(Cl)c2)ncn1 [I-98],≤ 10 nM,100 to 1000 nM,≥ 10000 nM,,,,,
"COc1ccc(NC(=O)/C=C/CN(C)CCCCNC(=O)CCCC(=O)NCCCOCCOCCOCCCNC(=O)CCCC[C@@H]2SC[C@@H]3NC(=O)N[C@@H]32)cc1Nc1cc(Nc2ccc(F)c(Cl)c2)ncn1 [I-99, N^1-(4-(((E)-4-(3-(6-(3-chloro-4-fluorophenylamino)pyrimidin-4-ylamino)-4-methoxyphenylamino)-4-oxobut-2-enyl)(methyl)amino)butyl)-N^5-(15-oxo-19-((3aS,4S,6aR)-2-oxohexahydro-1H-thieno[3,4-d]imidazol-4-yl)-4,7,10-trioxa-14-azanonadecyl)glutaramide]",≤ 10 nM,≤ 10 nM,,,,,,≤ 10 nM
"C=CC(=O)Nc1cc(Nc2cc(Oc3ccc(Oc4ccccc4)cc3)ncn2)ccc1N1CCOCC1 [I-101, N-(2-morpholino-5-(6-(4-phenoxyphenoxy)pyrimidin-4-ylamino)phenyl)acrylamide]",≤ 10 nM,≤ 10 nM,100 to 1000 nM,,,,,
